From the supplement of paper PMC6206229
Converted amounts (≈) assume the structure as drawn.

Key:
[1] = tested on: Staphylococcus aureus ATCC 700699 (MRSA); assay: minimum inhibitory concentration; extreme values may be limits of the assay
In short: (§1)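 Following CLSI guidance, methicillin-susceptible and methicillin-resistant Staphylococcus aureus were exposed to compounds from 0 to 100 µM in 96-well plates for 24 h at 37°C, then to 30 µl of 0.015% resazurin for 2–4 h. The minimum inhibitory concentration was read as the lowest concentration with no change from blue to pink. Testing was done at least twice in triplicate with positive controls on each plate.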

[2] = tested on: Staphylococcus aureus ATCC 29213 (MSSA); assay: as above
In short: as §1

Structure (SMILES)	minimum inhibitory concentration [1]	minimum inhibitory concentration [2]
Cc1ccc(S(=O)(=O)N2CCN(C(=O)c3cc(-c4ccccc4)n[nH]3)CC2)cc1	> 50 µM	> 50 µM
Cc1ccc2nc(C)c(-c3ccn(Cc4ccccc4)n3)n2c1	> 50 µM	> 50 µM
Cc1cc2ccccc2n1CC(=O)N1CC(C(=O)N2CCCCC2)Oc2ccccc21 (centres undefined)	> 50 µM	> 50 µM
Cc1ccc(NC(=O)CC2COc3ccccc3O2)cc1Cl (centres undefined)	> 50 µM	> 50 µM
COc1cccc(-n2nnnc2S(C)(=O)=O)c1	> 50 µM	> 50 µM
CC(=O)Oc1ccccc1C(=O)Nc1ncc([N+](=O)[O-])s1	> 50 µM	> 50 µM
CC(C)(C)C(=O)N(CCCCCCN1C[C@H](O)[C@@H](O)[C@H](O)[C@H]1CO)C1CCCCCC1	> 50 µM	> 50 µM
COc1cccc2c(C)nc(N=C(N)N)nc12	> 50 µM	> 50 µM
Cc1cc(OCC(=O)NCc2ccccc2)c2cc(Br)ccc2n1	> 50 µM	> 50 µM
CS(=O)(=O)c1ccc(C(=O)N(CC2CCCO2)c2nc3ccccc3s2)cc1[N+](=O)[O-] (centres undefined)	> 50 µM	> 50 µM
O=C([C@@H](c1ccc(Cl)cc1)c1cccnc1)N1CCN(c2ccc(C(F)(F)F)cc2)CC1	50 µM (≈ 23 µg/mL)	50 µM (≈ 23 µg/mL)
CC(=O)Nc1ccc(NC(=O)c2cc(-c3cc(Cl)ccc3O)n[nH]2)cc1	> 50 µM	> 50 µM
CS(=O)(=O)N1CCC(Cn2nc(Cc3cccc4ccccc34)c3c(N)ncnc32)CC1	> 50 µM	> 50 µM
FC(F)(F)c1cccc(-c2nc3c(NCc4ccncc4)nccc3[nH]2)c1	> 50 µM	> 50 µM
O=C(NCCc1ccn(-c2ccccc2)n1)C1CCCCC1	> 50 µM	> 50 µM
Cc1cc(C(=O)Nc2cnn(Cc3ccc(Cl)cc3Cl)c2)no1	> 50 µM	> 50 µM
CNc1cc(C)nc(C2CN(C(=O)c3n[nH]c4ccccc34)CCO2)c1 (centres undefined)	> 50 µM	> 50 µM
COc1ccccc1C(C)NCC(=O)Nc1cc(C(F)(F)F)ccc1Cl (centres undefined)	> 50 µM	> 50 µM
Nc1ncnc2c1c(-c1cnc3ccccc3c1)nn2CC1CCNCC1	> 50 µM	> 50 µM
COc1ccc(-c2cc(NC(=O)c3ccc(F)cc3Cl)ccc2OC)cc1	> 50 µM	> 50 µM
COc1ccc(Cl)cc1NC(=O)CN(C)C(=O)c1cnn(-c2ccccc2)n1	> 50 µM	> 50 µM
CC(C)C(Oc1cccc2ccccc12)C(=O)O (centres undefined)	> 50 µM	> 50 µM
Cc1cccc(Cn2ccc(NC(=O)c3ccc4c(c3)OCO4)n2)c1	> 50 µM	> 50 µM
CC(C)(C)OC(=O)N1CCN(c2cc(-c3ccc(Oc4ccccc4)cc3)n[nH]2)CC1	> 50 µM	> 50 µM

Structure (SMILES)	minimum inhibitory concentration [1]	minimum inhibitory concentration [2]
Cc1ccc(-c2cc(C(=O)Nc3cccnc3)c3cc(Br)ccc3n2)cc1	50 µM (≈ 20.9 µg/mL)	50 µM (≈ 20.9 µg/mL)
Cc1ncc(-c2ccnc(Nc3ccc(S(C)(=O)=O)cc3)n2)n1C(C)C	> 50 µM	> 50 µM
C[C@H](C(N)=O)N1CCCC[C@H]1c1ccc(OCc2cccc(F)c2)cc1	> 50 µM	> 50 µM
Cc1ccc(-c2nc(CN(Cc3ccccn3)C(C)C)cs2)o1	> 50 µM	> 50 µM
Cc1[nH]c2ccccc2c1C(c1cccs1)N1CCN(C)CC1 (centres undefined)	50 µM (≈ 16.3 µg/mL)	50 µM (≈ 16.3 µg/mL)
Cc1ccc(NC(=O)c2cc(S(=O)(=O)NC(C)(C)C)ccc2C)nc1	> 50 µM	> 50 µM
COc1ccc(Oc2ccc([C@@H](C)N(C)c3ncc4c(N)nc(N)nc4n3)cc2)cc1	> 50 µM	> 50 µM
N#Cc1ccc(-c2ccc(OCC(N)=O)cc2)cc1	> 50 µM	> 50 µM
CCCn1c(CNc2ccccc2O)nc2ccccc21	> 50 µM	> 50 µM
O=C(NCc1nnc2n1CCCCC2)c1ccc(-c2ccc(F)cc2)o1	> 50 µM	> 50 µM
OCCc1ccc(Nc2nccc(-c3nnc4ccccn34)n2)cc1	> 50 µM	> 50 µM
Cc1nn2c(O)c3c(nc2c1-c1ccc(F)cc1)CCCC3	> 50 µM	> 50 µM
CN1CCN(c2nccc3[nH]c(-c4cccc(F)c4)cc23)CC1	> 50 µM	> 50 µM
Cc1cc(C)c2cc(C(=O)NC3CCCCCCC3)[nH]c2c1	> 50 µM	> 50 µM
CC1COC(Cn2cncn2)(c2ccc(Oc3ccc(Cl)cc3)cc2Cl)O1 (centres undefined)	> 50 µM	> 50 µM
CC1CC1C(=O)NC1CCN(CC2(c3ccccc3)CCCCC2)CC1 (centres undefined)	> 50 µM	> 50 µM
Nc1nc2cc(-c3cncc(Oc4ccc(F)cc4)c3)ccc2[nH]1	50 µM (≈ 16 µg/mL)	50 µM (≈ 16 µg/mL)
Nc1cccnc1Nc1ccc(Cl)cc1	> 50 µM	> 50 µM
CCOc1ccc(OCC(=O)Nc2cc(C)cc(C)c2)cc1	> 50 µM	> 50 µM
CCC(Sc1nc2ccccc2o1)C(=O)Nc1nccs1 (centres undefined)	50 µM (≈ 16 µg/mL)	> 50 µM
Cc1cc(C2=NOC(c3cc(Cl)c(F)c(Cl)c3)(C(F)(F)F)C2)ccc1C(=O)NCc1ccc2c(c1)C(C)(C)OB2O (centres undefined)	> 50 µM	> 50 µM
Nc1ccc2ncnc(Nc3ccc(OCc4cccc(F)c4)c(Cl)c3)c2c1	> 50 µM	> 50 µM
O=C(C1CCN(c2cc(-n3cccc3)ncn2)CC1)N1CCc2ccccc2C1	> 50 µM	> 50 µM
c1ccc2c(c1)CN(CC1CC1)CC1(CCN(Cc3c[nH]c4cnccc34)CC1)O2	50 µM (≈ 20.1 µg/mL)	50 µM (≈ 20.1 µg/mL)

Structure (SMILES)	minimum inhibitory concentration [1]	minimum inhibitory concentration [2]
CCN(CC)C(=O)N1CCN(C)CC1	> 50 µM	> 50 µM
COC(=O)c1c(NC(=O)c2c(F)c(F)c(F)c(F)c2F)sc2c1CCCCC2	> 50 µM	> 50 µM
Cc1cc(Cl)c(S(=O)(=O)N2CCCC2)cc1OCC(=O)NC1CCCCC1	> 50 µM	> 50 µM
Clc1cccc(C(c2ccc(CN3CCNCC3)cc2)n2ccnc2)c1 (centres undefined)	> 50 µM	> 50 µM
COc1cc(C2=NCCN2)cc2cc(-c3ccc(C4=NCCN4)cc3)oc12	> 50 µM	> 50 µM
COc1ccc(N(CCc2cccc(C)n2)C(C)=O)cc1	> 50 µM	> 50 µM
O=C(Cn1ccnc1[N+](=O)[O-])NCc1ccccc1	> 50 µM	> 50 µM
Cc1cc(NCCc2ccccc2)nc(NC(=N)Nc2ccc(Cl)cc2)n1	25 µM (≈ 9.52 µg/mL)	25 µM (≈ 9.52 µg/mL)
CC(=O)N1CCc2cc3nc(C)cc(C)c3cc21	> 50 µM	> 50 µM
Cc1cc(Cl)ccc1NC(=O)CCc1ccc(S(=O)(=O)NCC(C)C)cc1	> 50 µM	> 50 µM
CN(C(=O)c1cc2c(-c3cncnc3)cccc2[nH]1)c1ccccc1	> 50 µM	> 50 µM
O=C(N[C@H](Cc1ccccc1)C(=O)Nc1ccccc1N1CCOCC1)c1cccs1	> 50 µM	> 50 µM
Nc1nccc2ccc(-c3ccc4nccn4c3)cc12	> 50 µM	> 50 µM
CS(=O)(=O)Cc1nc2ccccc2oc1=O	> 50 µM	> 50 µM
Nc1ncnc2c1c(Cc1cccc3ccccc13)nn2CC1CCNCC1	> 50 µM	> 50 µM
CC1=NN(c2nc3ccccc3s2)C(=O)C1Cc1cccc2ccccc12 (centres undefined)	> 50 µM	> 50 µM
Clc1cccc(CO[C@H]2CCc3ccccc3[C@@H]2n2ccnn2)c1	> 50 µM	> 50 µM
Cc1cnc(N2CCN[C@@H](Cc3ccccc3)C2)nc1Oc1ccc(-n2ccnc2)cc1	> 50 µM	> 50 µM
CC(C)(C)n1nc(-c2ccccc2)c2c(N)ncnc21	> 50 µM	> 50 µM
COc1ccc(S(=O)(=O)Nc2ccc(CN3CCN(C(=O)c4cccc(C#N)c4)CC3)cc2)cc1	> 50 µM	> 50 µM
CC(=O)N(CCN(C(=O)c1ccc(F)cc1)c1ccccc1)c1ccccc1	> 50 µM	> 50 µM
Cc1ccccc1CN1CCC(O)(c2ccc(Cl)c(C(F)(F)F)c2)CC1	> 50 µM	> 50 µM
COc1ccc(-c2cnc3cnc(-c4cccc(OC(C)C)c4)cn23)cc1	> 50 µM	> 50 µM
Cc1c[nH]c(CCNC(=O)c2cc(-c3ccc(Cl)cc3)cs2)n1	> 50 µM	> 50 µM
